This is an account of results in PMC8802617 (Bioorganic & medicinal chemistry, 2018).

Assay [1] concerns the target T1, MOR (Homo sapiens, UniProt P35372). Format: binding. As to conditions: membranes from transient HEK cells.
The target in assay [2] is T2, KOR (Homo sapiens, UniProt P41145). Briefly: biochemical. Format: binding.
For assay [3], the target named is T3, DOR (Homo sapiens, UniProt P41143). Put plainly: Split luciferase cAMP assay, agonist mode, HEK cells stably expressing DOR. Format: cell-based. (Cyclic AMP is a second messenger, typically raised through Gs and lowered through Gi signalling.)
For assay [4], the target named is T2, KOR. Briefly: cell-based.
Assay [5] addresses T3, DOR. Type of assay: binding. The settings on record: membranes from transient HEK cells.
The target in assay [6] is T1, MOR. Put plainly: Split luciferase cAMP assay, agonist mode, HEK cells stably expressing MOR. Format: cell-based.
Assay [7] has as its target T2, KOR. As to conditions: read-out: KOR Ki, cited from earlier work.
Assay [8] concerns the target T1, MOR. As to conditions: read-out: MOR Ki; literature value ref 16; cited from earlier work.
Assay [9] concerns the target T3, DOR. As to conditions: read-out: DOR Ki; literature value ref 16; cited from earlier work.

Where two headings read alike, the source gives them in different places. *1 amine or outer side, *2 acyl side, *3 side chain or, on linkers, in order; H or OH if unused. Where a SMILES comes first, the peptide text is derived from it. Bridges are numbered along the chain shown (N, C = ends). Roman numbers before positions name the chains, in order. [ ]: non-standard residue; d: D form. Piperazine(1,4-diyl) = C1CN([*:2])CCN1[*:1]; dPen = CC(C)(S)[C@@H](N)C(=O)O

T2 sequence (P41145 whole entry): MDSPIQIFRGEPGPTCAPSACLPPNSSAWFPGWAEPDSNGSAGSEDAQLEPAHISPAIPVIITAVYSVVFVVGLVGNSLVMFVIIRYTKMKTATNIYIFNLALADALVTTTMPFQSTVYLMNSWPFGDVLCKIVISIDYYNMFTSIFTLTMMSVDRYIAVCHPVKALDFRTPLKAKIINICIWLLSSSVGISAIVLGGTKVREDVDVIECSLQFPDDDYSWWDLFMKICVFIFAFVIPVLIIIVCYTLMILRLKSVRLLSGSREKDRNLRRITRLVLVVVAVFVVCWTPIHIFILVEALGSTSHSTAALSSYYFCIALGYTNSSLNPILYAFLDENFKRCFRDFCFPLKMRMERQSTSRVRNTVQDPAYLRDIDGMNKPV
T1 sequence (P35372 whole entry): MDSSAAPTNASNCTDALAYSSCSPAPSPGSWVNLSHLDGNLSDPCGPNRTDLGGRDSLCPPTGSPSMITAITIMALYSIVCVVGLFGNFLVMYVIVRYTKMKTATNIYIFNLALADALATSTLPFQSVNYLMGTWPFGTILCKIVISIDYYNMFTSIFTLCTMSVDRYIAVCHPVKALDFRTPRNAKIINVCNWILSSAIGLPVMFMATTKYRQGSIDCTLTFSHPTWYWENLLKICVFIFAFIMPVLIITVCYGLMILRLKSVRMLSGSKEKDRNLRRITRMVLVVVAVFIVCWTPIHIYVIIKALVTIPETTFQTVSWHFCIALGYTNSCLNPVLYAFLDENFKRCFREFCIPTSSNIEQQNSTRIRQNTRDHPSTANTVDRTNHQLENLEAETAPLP
T3 sequence (P41143 whole entry): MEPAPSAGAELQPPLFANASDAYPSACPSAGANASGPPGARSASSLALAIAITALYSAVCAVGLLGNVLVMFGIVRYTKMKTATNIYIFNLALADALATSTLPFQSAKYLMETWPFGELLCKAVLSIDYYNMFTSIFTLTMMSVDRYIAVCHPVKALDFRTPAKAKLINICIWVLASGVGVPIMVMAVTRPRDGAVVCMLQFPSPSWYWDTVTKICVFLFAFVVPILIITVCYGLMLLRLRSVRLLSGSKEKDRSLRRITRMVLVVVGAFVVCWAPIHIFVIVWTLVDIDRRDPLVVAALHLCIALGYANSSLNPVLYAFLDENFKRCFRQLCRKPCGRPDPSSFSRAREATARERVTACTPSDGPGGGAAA

As to `CC1(C)SSC(C)(C)[C@@H](NC(=O)[C@@H](N)Cc2ccc(O)cc2)C(=O)NCC(=O)N[C@@H](Cc2ccccc2)C(=O)N2CCN(CC2)C(=O)[C@H](Cc2ccccc2)NC(=O)CNC(=O)[C@@H]1NC(=O)[C@@H](N)Cc1ccc(O)cc1` [ligand 3, c^2,2′(Tyr-DPen-Gly-Phe)2-piperazine] (I: H-Y[dPen]GF / II: H-Y[dPen]GF; disulfide I:2-II:2; linker I:C-II:C via Piperazine(1,4-diyl)), the Ki is 2.9 nM at MOR [1] (MOR [3H]DAMGO Ki); 2.88 nM at MOR [1] (MOR [3H]DAMGO pKi); 5.6 nM at KOR [2] (KOR [3H]U69593 Ki); 5.62 nM on KOR [2] (KOR [3H]U69593 pKi); 1.9 nM at DOR [5] (DOR [3H]DADLE Ki); 2 nM on DOR [5] (DOR [3H]DADLE pKi). Besides, the EC50 at DOR [3] (DOR EC50, agonist mode) is 269 nM; at DOR [3] (DOR pEC50, agonist mode), 269 nM; at KOR [4] (KOR EC50), 269 nM; on KOR [4] (KOR pEC50), 269 nM; on MOR [6] (MOR EC50, agonist mode) it was 191 nM; on MOR [6] (MOR pEC50, agonist mode) it was 191 nM.

For Biphalin, the Ki with KOR [7] (literature value ref 6) was 270 ± 15 nM.

For the compound “c^2,2′(Tyr-DPen-Gly-Phe-NH-)2 (YCGF) [compound 6]”, the Ki in the assay with MOR [8] is 5.2 ± 0.5 nM; with DOR [9], 1.9 ± 0.2 nM; with KOR [7] (literature value ref 16) it was 257 ± 25 nM.

The term Ki denotes a dissociation constant, usually derived from enzyme kinetics or from competition with a known ligand. Usually EC50 stands for the concentration needed to bring the measured effect to its halfway point.
